Source: ChEMBL document CHEMBL1155628, “A new cembranolide from the soft coral Sinularia capillosa” (2000)
≈ marks a conversion by molar mass, not a printed value.

Experiments:
L1210 = assay: Cytotoxicity against mouse L1210 cells; assay type: functional; conditions: read-out: ED50 (the source's name)
P388 = assay: Cytotoxicity against mouse P388 cells; assay type: functional; conditions: read-out: ED50 (the source's name)

Row | SMILES | EC50 (L1210) [µg/mL] | EC50 (P388) [µg/mL]
1 | C=C1C(=O)O[C@]2(C)CC[C@@H]1C[C@@H](O)[C@@](C)(O)CC/C=C(\C)CC[C@@H]2O [CAPILLOLIDE] | 18.5 (≈ 52.5 µM) | 15 (≈ 42.6 µM)
2 | C=C1C(=O)O[C@]2(C)CC[C@@H]1C[C@@H]1O[C@@]1(C)CC/C=C(\C)CC[C@@H]2O [SINULARIOLIDE] | 10 (≈ 29.9 µM) | 8.5 (≈ 25.4 µM)
3 | C=C1C(=O)O[C@]2(C)CC[C@@H]1C[C@@H]1O[C@@]1(C)CC[C@H](OC(C)=O)[C@@]1(C)CC[C@@H]2O1 | 5 (≈ 12.7 µM) | 2.5 (≈ 6.37 µM)
4 | C=C1C(=O)O[C@@H]2C[C@H]1CC[C@]1(C)O[C@H]1CC/C(C)=C/CC[C@@]2(C)O [FLEXIBILIDE] | 3 (≈ 8.97 µM) | 1.5 (≈ 4.48 µM)
